Measured values as given in paper PMC5555576, “Selective small-chemical inhibitors of protein arginine methyltransferase 5 with anti-lung cancer activity” (PLoS ONE, 2017).
“And” between values parts separate entries of the source, which are not always exact repeats. Equal values may be shown once. Read-outs that look alike come from different tables or passages of the source.

Legend:
PRMT5 = target: T1, PRMT5 (Homo sapiens, UniProt O14744); test: Radioactive methyltransferase assay, PRMT5; assay type: biochemical
T1 construct: His6; made in house; host or cells: E. coli BL21(ED3) [sic]
Description: Methylation reactions were performed as previously described with a few modifications. Reaction mixtures (40 μl) containing 1.2 μg of PRMT5, 98 ng of PRMT1 or 98 ng of PRMT3; 2 μg of SmD3 or histones; 1 μCi of S-[methyl-^3H]adenosylmethionine (H^3-AdoMet; PerkinElmer); and 5 μM AdoMet were incubated in 50 mM Tris-HCl (pH 7.5)–1 mM EGTA–1 mM EDTA at 30°C for 2 h. Reaction mixtures (20 μl) were boiled in 5 μl of 5x SDS sample buffer and separated on a 15% polyacrylamide gel. Gels were fixed for 30 min in 40% methanol–10% acetic acid, incubated in 20 ml of Amplify (Amersham Life Science) for 10 min, dried and exposed to X-ray film at -80°C. IC50 was calculated by linear regression analysis of percent inhibition. The other half (20 μl) of each reaction mixture was spread onto DE81 chromatography paper discs (Whatman). The paper discs were washed 4 times with 50 mM NaHCO3 and dried. The amounts of methylated products were quantified by liquid scintillation.
In vitro methylation reactions were performed with recombinant PRMT5 (1.2 μg), PRMT1 ([…]) or PRMT3 (89 ng); [H^3]-AdoMet; and different substrates in the presence of identified compounds. […] The recombinant SmD3 (2 μg) was used as the substrate in the absence (lane 2) or presence of 1, 10 or 100 μM compounds as indicated. Reaction mixtures were separated on an SDS–15% polyacrylamide gel and the gel was dried under vacuum and exposed to film. […] Recombinant histones H4 or H2A (1 μg) were used as substrates of PRMT5 in the methylation assay in the absence or presence of 100 μM compounds as indicated. Reaction mixtures were spread onto DE81 chromatography paper discs. After a wash, the amounts of methylated products on discs were quantified by liquid scintillation. […] PRMT1 was incubated with purified histones (1 μg) or recombinant E2F1 (1 μg) as substrates in the absence (lane 2) or presence of 100 μM compounds as indicated. Reaction mixtures were separated on an SDS–15% polyacrylamide gel and the gel was dried and exposed to film.

[1] = test system: arginine methylation in histone H2A, histone H4 and B-Raf in A549 cells; test: Western blot of symmetrical arginine dimethylation of PRMT5 substrates in cells; assay type: cell-based; conditions: 20 μM, SYM10 antibody
Description: Histones were purified as reported previously. Briefly, cells (1–5 x 10^6) or lung tumors (10–100 mg) were lysated using a glass dounce in 1 ml of 1x Passive Lysis Buffer (Promega) and nuclear pellets were collected by centrifugation at 3,000 rpm for 5 min at 4 °C. The supernatant was discard and the pellets were washed with 1 ml of 1x Passive Lysis Buffer. Nuclear pellets were resuspended in 0.4 ml of the buffer (10 mM Trs-HCl, pH7.9, 0.2 mM EDTA, 1 mM DTT, 20% glycerol, 0.42 M KCl) and incubate for 30 min on ice, and centrifuged at 12,000 rpm for 10 min at 4 °C. The supernatant (histones extract) was transferred to a new tube and histones were precipitated by 20% trichloroacetic acid.
Protein extracts or histones (20 μg) were subjected to 10% or 15% sodium dodecyl sulfate-polyacrylamide gel electrophoresis, respectively then transferred to Immobilon-P membranes (Millipore). The blots were then probed for 2 hours with the primary antibody at dilutions of 1:500 (anti-symmetrical dimethylated arginine, SYM10, EMD Millipore), 1:1,000 (anti-B Raf, ab65050, Abcam) or 1:1,000 (anti-PRMT5, Abcam). The blots were then incubated with a horseradish peroxide-conjugated secondary antibody (1:5,000; Fischer Scientific) for 1.5 h. Immunoreactive proteins were detected using an enhanced chemiluminescence detection system (GE Healthcare) per the manufacturer’s instructions. Protein concentrations were determined using the Bradford protein assay reagent (Bio-Rad).
A, The cellular permeability of identified compounds. Lung cancer A549 cells were cultured in the presence of various concentrations of compounds for 2h and the compound concentrations in the cell were determined by HPLC chromatography with a C18 column. B, The cellular stability of identified compounds. […] The compound concentrations in the cell were determined by HPLC chromatography with a C18 column. […] Histones were purified and analyzed by SDS-PAGE stained with Commassie blue (lanes 1–4, bottom) or by Western blot with anti-symmetric dimethyl arginine antibody (SYM10) (lanes 1–4, top). […]

A549 cells = test: Cell cycle distribution by flow cytometry; assay type: cell-based; conditions: 20 μM, 2 days
Description: Supplementary file pone.0181601.s002.tif: S2 Fig Identified compounds arrested cell cycle at the G1 phase. A549 cells were infected with the lentivirus expressing non-target (NT) or PRMT5 shRNA as described previously by us. A549 cells were grown in the presence of DMSO or 20 μM of the compound C5, C9 or C11 for 2 days. A, PRMT5 protein levels in A549 cells. Whole cell lysates were prepared and submitted for Western blot analysis with anti-PRMT5 (top) or anti-actin (bottom) antibody. B, Cell cycle distributions. Cells were harvested, washed with phosphate-buffered saline (PBS) and fixed in 70% ethanol at 4 °C overnight. Cells were collected and stained with propidium iodide (PI). The cell-cycle distributions were determined by flow cytometry analysis (BD Accuri^TM C6 Flow Cyometer). (TIF) Click here for additional data file.

[2] = methylation of SmD3 by PRMT5, Table 1 prints no unit, μM, read-out: IC50

T1 sequence (O14744 whole entry): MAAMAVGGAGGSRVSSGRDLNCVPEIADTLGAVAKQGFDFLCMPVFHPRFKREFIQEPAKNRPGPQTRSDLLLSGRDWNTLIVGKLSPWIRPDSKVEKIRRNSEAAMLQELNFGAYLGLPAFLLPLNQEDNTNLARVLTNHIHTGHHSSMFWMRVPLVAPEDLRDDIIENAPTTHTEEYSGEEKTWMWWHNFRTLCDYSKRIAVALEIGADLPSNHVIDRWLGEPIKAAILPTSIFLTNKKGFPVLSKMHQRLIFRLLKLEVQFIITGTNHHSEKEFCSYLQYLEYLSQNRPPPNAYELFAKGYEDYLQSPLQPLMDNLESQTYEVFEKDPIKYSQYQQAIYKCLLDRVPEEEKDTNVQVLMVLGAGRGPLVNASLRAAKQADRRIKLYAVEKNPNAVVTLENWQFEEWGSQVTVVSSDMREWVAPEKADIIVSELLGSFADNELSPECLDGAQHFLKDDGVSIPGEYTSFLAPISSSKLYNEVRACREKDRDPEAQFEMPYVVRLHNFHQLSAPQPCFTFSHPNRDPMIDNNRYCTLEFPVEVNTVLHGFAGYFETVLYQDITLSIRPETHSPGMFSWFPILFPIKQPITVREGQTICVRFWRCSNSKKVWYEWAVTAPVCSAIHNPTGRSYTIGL

Row | Compound | IC50 (PRMT5; [2]) | IC50 (PRMT5; wild type PRMT5, SmD3 substrate, Fig 4D, read-out: IC50 (μM) PRMT5) [µM] | arginine methylation in histone H2A, histone H4 and B-Raf [1] | cell cycle effect (A549 cells) | inhibition of PRMT5 activity compared to C9 (PRMT5; SmD3 substrate, 1, 10 or 100 μM)
1 | CCn1c(=O)[nH]c2cc(C(=O)Nc3ccc(OC)cc3)ccc2c1=O [Compound C5] | 0.75 µM | 0.8 | significantly inhibited | arrested the cell cycle at the G1 phase | 
2 | COc1ccc(Nc2ncnc3c2cnn3Cc2ccc(C)cc2)cc1 [Compound C9] | ~6 µM and 6 µM |  | significantly inhibited | arrested the cell cycle at the G1 phase | 
3 | Nc1cccc(Nc2ncnc3c2cnn3Cc2ccccc2)c1 [Compound C9a] | 0.7 µM |  |  |  | higher efficacy
4 | Cn1cc(C(c2ccc(O)c(O)c2O)c2cn(C)c3ccccc23)c2ccccc21 [Compound C11] | 0.3 µM |  | significantly inhibited | arrested the cell cycle at the G1 phase | 
